Reference: article PMC3156243, “Properties and Crystal Structure of Methylenetetrahydrofolate Reductase from Thermus thermophilus HB8” (PLoS ONE, 2011)

Target: T1, MTHFR (methylenetetrahydrofolate reductase) (Thermus thermophilus, UniProt Q5SLG6)
T1 construct: gene TTHA0327
Assay: biochemical

T1 sequence (Q5SLG6 1-296): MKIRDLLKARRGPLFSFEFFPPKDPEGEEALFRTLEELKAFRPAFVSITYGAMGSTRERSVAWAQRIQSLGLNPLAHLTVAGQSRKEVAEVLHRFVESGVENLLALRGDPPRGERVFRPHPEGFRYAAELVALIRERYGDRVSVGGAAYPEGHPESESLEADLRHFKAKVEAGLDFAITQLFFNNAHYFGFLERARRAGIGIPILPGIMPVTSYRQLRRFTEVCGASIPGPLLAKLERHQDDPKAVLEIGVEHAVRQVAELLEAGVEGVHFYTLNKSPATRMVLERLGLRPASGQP

For `CN1c2c(nc(N)[nH]c2=O)NC[C@@H]1CNc1ccc(C(=O)N[C@@H](CCC(=O)O)C(=O)O)cc1` (mixture of isomers) [(6S)-5-CH3-H4folate], the Ki was 15 ± 6 µM.
